Results on 1 compound are retold here after article PMC4481117 (Molecular Pain, 2015).

Experiment [1] relates to Mac-1-deficient macrophages. Put plainly: Transwell migration of Mac-1-deficient peritoneal macrophages to Dyn A. In kind it is cell-based, mouse. Particulars: 10 μM Dyn A, 90 min at 37 °C, TG-elicited. On the procedure: Fig. 6 Migration of Mac-1-expressing cells to Dyn A in a Transwell system. a, Mac-1-expressing HEK 293 cells (100 μl at 3 × 10^6 cell/ml) were added to the upper wells of the transwell chamber and their ability to migrate to different concentrations of Dyn A placed in the lower chamber was analyzed. After 16 hours at 37 °C, migrated cells were fixed, stained, and counted. Data are presented as numbers of migrated cells per field ± S.E. for five random fields per well. The figure is representative of 5 experiments. b, Mac-1-expressing or wild-type HEK 293 cells were added to the upper wells of the transwell chamber and their ability to migrate to 10 μM Dyn A placed in the lower chamber was analyzed as in A. Some Mac-1-HEK293 cells were pretreated with 20 μg/ml of mAbs 44a (anti-αM), IB4 (anti-β2) or OKM1 (non function-blocking anti-αM) or medium alone before addition to the upper wells. ***, medium alone. […] The number of migrated cells was determined as in A. Data are presented as number of migrated cells per field ± S.E. for five random fields per well. […]
Migration assays with wild-type and Mac-1-expressing HEK293 cells and purified macrophages using Transwell inserts (5 μm pore size) were performed as previously described. […] The photographs were taken using a 20x objective and cells in […] and cells were counted. […]

The subject of experiment [2] is Mac-1 (Mac-1-HEK293 cells). In words: Inhibition of adhesion of Mac-1-HEK293 cells to fibrinogen by soluble peptides. The format is cell-based, Human. Particulars: soluble peptide 50 μM, 10 min at 22 °C; 2.5 μg/mL fibrinogen coating, 30 min at 37 °C; mean ± S.E., three experiments. The procedure:
Fig. 4 Effect of soluble Dyn A on Mac-1-mediated cell adhesion to fibrinogen. a (left ordinate), calcein-labeled Mac-1-HEK293 cells were preincubated with different concentrations of dynorphin A (black bar), dynorphin B (open bar) or control peptide (gray bar) for […] at 22 °C and added to the wells of microtiter plates coated with 2.5 μg/mL fibrinogen. Cells were allowed to adhere for 30 minutes at 37 °C before removing nonadherent cells. […] Data are expressed as a percentage of total cell fluorescence
Adhesion assays were performed essentially as described previously. […] Cells were labeled with 10 μM calcein for 30 min at 37 °C and washed twice with Hanks’ Balanced salt solution (HBSS) containing 0.1 % BSA. Aliquots (100 μl) of labeled cells (5x10^5/ml) were added to each well and allowed to adhere for 30 min at 37 °C. The non-adherent cells were removed by two washes with PBS. Fluorescence was measured in a CytoFluorII fluorescence plate reader (Perceptive Biosystems, Framingham, MA). In inhibition experiments, cells were mixed with different concentrations of peptides, NIF or mAbs for 20 min at 22 °C before they were added to the wells coated with adhesive substrates. […] After aspirating the solution, labeled cells were added and cell adhesion was analyzed as above.

Another experiment deals with Mac-1-HEK293 cells. Put plainly: Translocation of Dyn A into Mac-1-HEK293 cells (immunolabeling). The format is cell-based, Human. To be noted: 40 min at 37 °C. On the procedure:
Fig. 5 Translocation of Dyn A into cells. Mac-1-expressing (a) and wild-type HEK293 (b) cells were incubated with 20 μM and 100 μM of Dyn A for 40 min at 37 °C, fixed, permeabilized and incubated with anti-dynorphin antibodies followed by Alexa Fluor 488-conjugated secondary goat anti-rabbit antibodies. No labeling was detected in the absence of primary antibody. c, Enlarged images of Dyn A-accumulated Mac-1- and wild-type HEK cells shown in a and b. d, Quantification of fluorescent cells shown in a and b
Mac-1-HEK 293 and wild-type HEK 293 cells were incubated for 10 min with different concentrations (0–100 μM) of Dyn A and allowed to adhere to glass coverslips coated with poly-Lysine for 30 min. Adherent cells were fixed in 2 % paraformaldehyde solution, permeabilized with 0.1 % Tween-20, and blocked with 10 % normal goat serum plus 1 % BSA. The coverslips were incubated with 5 μg/ml polyclonal anti-Dyn A antibody followed by an secondary goat anti-rabbit antibody conjugated to Alexa Fluor 488 (1:1000). Images were taken using a Leica DM 4000B microscope (Leica, Buffalo Grove, IL).

Take `CC[C@H](C)[C@H](NC(=O)[C@H](CCCNC(=N)N)NC(=O)[C@H](CCCNC(=N)N)NC(=O)[C@H](CC(C)C)NC(=O)[C@H](Cc1ccccc1)NC(=O)CNC(=O)CNC(=O)[C@@H](N)Cc1ccc(O)cc1)C(=O)N[C@@H](CCCNC(=N)N)C(=O)N1CCC[C@H]1C(=O)N[C@@H](CCCCN)C(=O)N[C@@H](CC(C)C)C(=O)N[C@@H](CCCCN)C(=O)N[C@@H](Cc1c[nH]c2ccccc12)C(=O)N[C@@H](CC(=O)O)C(=O)N[C@@H](CC(N)=O)C(=O)N[C@@H](CCC(N)=O)C(=O)O` [Dyn A]: the “Migration of Mac-1-deficient macrophages (in words)” value in experiment [1] is listed as “significantly impaired”. Further, the “Inhibition of adhesion to fibrinogen” value in experiment [2] is on record as 67 ± 2%. For the same compound, in the experiment on Mac-1-HEK293 cells (20 μM Dyn A), the “Localization of Dyn A in Mac-1-HEK293 cells” value was “primarily associated with the cell periphery”. Moreover, the “Number of Mac-1-HEK293 cells accumulating Dyn A vs wild-type” value in the experiment on Mac-1-HEK293 cells (Dyn A, anti-dynorphin antibodies) was “significantly smaller number of Mac-1-HEK293 cells accumulated Dyn A”.
